Here are results for six compounds from article PMC10515486, “Peptide Bispecifics Inhibiting HIV-1 Infection by an Orthogonal Chemical and Supramolecular Strategy” (Bioconjugate Chemistry, 2023).

One test relates to R5-tropic HIV-1. As to the kind of experiment: Replication kinetics in human PBMCs, R5-tropic HIV-1. It is filed as cell-based. As to conditions: activated PBMCs from three human donors; 1 μM compound, AMD3100 1 μM, MVC 50 nM; supernatants titrated on TZM-bl cells. The method, then: Figure 5 Antiviral activity of single- and multivalent VIR-102C9/EPI-X4 JM#173-C conjugates. Concentrations indicate the molarity of the tested biotin-conjugated peptides or of the SAv conjugates with four copies of mono- or bispecific peptides respectively. (A) TZM-bl cells were pretreated with the indicated amounts of the single or multivalent compound and infected with X4- or R5-tropic HIV-1. Three days post-infection, a β-galactosidase assay was performed. IC50 values are given in the SI (Table S2). (B) Human PBMCs were isolated, stimulated, and pretreated with 1 μM of the indicated single- or multivalent compound, Maraviroc (MVC/50 nM) or AMD3100 (1 μM). […] Infectious virus yield was determined by infection of TZM-bl reporter cells with PBMC culture supernatants obtained at the indicated day post-infection (dpi). […] They are assigned to (14) only because they sit in the plots with the purple curve, matched to the colour legend. / 14, IC50 (X4): small print, 0.026 could be 0.028 or 0.025 / 14, IC50 (R5): small print, 0.039 could be 0.038 or 0.089 / Substance label in the legend reads 'SAv-VIR-1029C-', but panel B prints 'SAv-VIR-102C9'. […]
Cell viability was determined by the Cell Titer-Glo 2.0 Cell Viability Assay according to the manufacturer’s instructions. […]
After 48 h, cell viability was assessed by measuring ATP levels in cells lysates with the commercially available Cell Titer-Glo kit. […]

A further test relates to R5-tropic HIV-1 NL4-3. An excerpt:
(§1) TZM-bl reporter cells were pretreated with increasing concentrations of the mono- and multivalent compounds and subsequently infected with the well-characterized X4-tropic HIV-1 NL4-3 molecular clone or an R5-tropic derivative thereof that differs in the V3 region of the viral envelope glycoprotein from the parental virus (Figure 5A).[39]
(§2) (A) TZM-bl cells were pretreated with the indicated amounts of the single or multivalent compound and infected with X4- or R5-tropic HIV-1. Three days post-infection, a β-galactosidase assay was performed. […] (B) Human PBMCs were isolated, stimulated, and pretreated with 1 μM of the indicated single- or multivalent compound, Maraviroc (MVC/50 nM) or AMD3100 (1 μM). The cells were infected with X4- or R5-tropic HIV-1. Infectious virus yield was determined by infection of TZM-bl reporter cells with PBMC culture supernatants obtained at the indicated day post-infection (dpi). […]
(§3) in supplemented RPMI-1640 and incubated with Human T-Activator CD3/CD28 […]
(§4) Virus stocks were generated by transient transfection of HEK293T cells using the calcium-phosphate precipitation method. One day before transfection, 0.8 x 10^6 HEK293T cells were seeded in 6 -well plates (Greiner Bio -one, Frickenhausen, Germany). At a confluence of 60-80% cells were used for transfection. For the […]

In a further test the test system is X4-tropic HIV-1 NL4-3. As to conditions: read-out: IC50 X4; TZM-bl cells pretreated, infected with X4-tropic HIV-1 NL4-3; β-galactosidase 3 days p.i.; molarity of biotin-conjugated peptide or of SAv construct (per construct); nonlinear regression.
Source text: as §1, §2, §3, §4

The subject of the next test is X4-tropic HIV-1. Description: Replication kinetics in human PBMCs, X4-tropic HIV-1. It is filed as cell-based. As to conditions: activated PBMCs from three human donors; 1 μM compound, AMD3100 1 μM, MVC 50 nM; supernatants titrated on TZM-bl cells. The method, then: as §2
The test system of the next test is wild-type HIV-1 NL4-3. As to conditions: Figure 2B.
The next test has as its system HIV-1 NL4-3. As to the kind of experiment: TZM-bl infection with HIV-1 NL4-3 preincubated with carrier compounds. Type of test: cell-based. The settings on record: virus preincubated with increasing amounts of carrier; β-galactosidase 3 days p.i.; three biological replicates. The method, then:
To determine the infectivity of virions produced in infected human |PBMCs, TZM-bl cells were seeded in 96 -well plates at a density of 10,000 cells/well and infected after overnight incubation with the supernatants collected from the PBMC cultures. Three days p.i., viral infectivity was determined using a galactosidase screen kit from Tropix as recommended by the manufacturer. β-Galactosidase activities were quantified as relative light units (RLU) per second with an Orion Microplate luminometer (Berthold) . […]
infected with HIV-1 NL4-3 that was preincubated with increasing amounts of the carrier compounds Avidin, Neutravidin or Streptavidin. Three days post infection , a β-galactosidase assay was performed.
Each dot represents three biological replicates ± SEM.
(1 picture or pasted object on this page, not shown here)

Non-standard residues stand in square brackets, D forms with d. Residues, ends and D or L forms follow the SMILES beside them. No end group written: not given here. *: point of attachment. X1 = O=C(CCCC[C@@H]1SC[C@@H]2NC(=O)N[C@@H]21)NCCOCCOCCOCCOCCOCCOCCOCCOCCOCCOCCOCCNC(=O)CCN1C(=O)CC(*)C1=O

Source text for wild-type HIV-1 NL4-3: (B) Inhibition of wild-type HIV-1 NL4-3 by single-cysteine VIRIP derivatives.

Regarding Maraviroc, the “replication of R5-tropic HIV-1 in PBMCs (infectious virus yield)” value with R5-tropic HIV-1 was “prevented”.

Broadly, the IC50 is the concentration that gives 50% inhibition. `CC[C@H](C)[C@H](NC(=O)[C@H](CO)NC(=O)[C@H](CCSC)NC(=O)[C@@H]1CCCN1C(=O)[C@@H](NC(=O)[C@H](C)NC(=O)[C@H](CCC(=O)O)NC(=O)[C@@H](N)CC(C)C)[C@@H](C)CC)C(=O)N[C@@H](CSC1CC(=O)N(CCC(=O)NCCOCCOCCOCCOCCOCCOCCOCCOCCOCCOCCOCCNC(=O)CCCC[C@@H]2SC[C@@H]3NC(=O)N[C@@H]32)C1=O)C(=O)N1CCC[C@H]1C(=O)N[C@@H](CCC(=O)O)C(=O)N[C@H](C(=O)N[C@@H](Cc1ccccc1)C(=O)N[C@@H](Cc1ccccc1)C(=O)N[C@@H](CC(N)=O)C(=O)N[C@@H](CCCCN)C(=O)N1CCC[C@H]1C(=O)N[C@@H](Cc1ccccc1)C(=O)N[C@H](C(=O)N[C@@H](Cc1ccccc1)C(=O)O)C(C)C)C(C)C` (stereo partly shown) [compound 5] (H-LEAIPMSIC(X1)PEVFFNKPFVF-OH; N-terminus and C-terminus assumed): the half-inhibitory concentration (IC50) was determined as 1.2 µM with R5-tropic HIV-1 NL4-3 (read-out: IC50 R5, TZM-bl cells pretreated, infected with R5-tropic HIV-1 NL4-3 derivative, β-galactosidase 3 days p.i., molarity of biotin-conjugated peptide or of SAv construct (per construct)) and 1.13 µM in the test with X4-tropic HIV-1 NL4-3.

Turning to `c1cc(CN2CCCNCCNCCCNCC2)ccc1CN1CCCNCCNCCCNCC1` [AMD3100], in the test on X4-tropic HIV-1, the “replication of X4-tropic HIV-1 in PBMCs (infectious virus yield)” value is “blocked”.

LEAIPMSICPEVFFNKPFVF [VIR-102C9]: the IC50 with wild-type HIV-1 NL4-3 was determined as 0.2 µM.

For “Streptavidin: tetrameric biotin-binding protein, carrier”, in the test on HIV-1 NL4-3, the “effect on HIV-1 infection efficiency” value is reported as “do not alter”.

Consider `CC[C@@H](C)[C@@H](N)C(=O)N[C@@H](CC(C)C)C(=O)N[C@@H](CCCNC(=N)N)C(=O)N[C@@H](Cc1c[nH]c2ccccc12)C(=O)N[C@@H](CO)C(=O)N[C@@H](CCCNC(=N)N)C(=O)N[C@@H](CCCCN)C(=O)N[C@@H](CSC1CC(=O)N(CCC(=O)NCCOCCOCCOCCOCCOCCOCCOCCOCCOCCOCCOCCNC(=O)CCCC[C@@H]2SC[C@@H]3NC(=O)N[C@@H]32)C1=O)C(N)=O` (stereo partly shown) [compound 6] (H-[dI]LRWSRKC(X1)-NH2; N-terminus and C-terminus assumed), for which, in the test with R5-tropic HIV-1 NL4-3 (TZM-bl cells), the “activity against the R5-tropic derivative (in words)” value is “inactive”.
